Assay results from US20040048849A1, “Cyclin-dependent kinase (cdk) and glycolene synthase kinase-3 (gsk-3) inhibitors” (priority 2000, published 2004).

Tested on: DU145 (human prostate cancer cells)
Assay: Antiproliferative activity, WST1 colorimetric test, DU145
Assay type: cell-based
Conditions: 96 hours treatment, 0 to 25 μM
Protocol: Characterization of the Antiproliferative Activity:
By way of example, the effect of a treatment on two human cell lines Mia-Paca2 and DU145 by the compounds of Examples 1 to 33 described previously will be studied. The cell lines DU145 (human prostate cancer cells) and Mia-PaCa2 (human pancreas cancer cells) were acquired from the American Tissue Culture Collection (Rockville, Md., USA). The cells placed in 95 μl of Dulbecco's Modified Eagle's medium (Gibco-Brl, Cergy-Pontoise, France) completed with 10% foetal calf serum inactivated by heating (Gibco-Brl, Cergy-Pontoise, France), 100 units/l of penicillin and 100 μg/ml/l of streptomycin (Gibco-Brl, 10378-057, Cergy-Pontoise, France), and 2 mM of glutamine (Gibco-Brl, Cergy-Pontoise, France) were seeded on a 96-well plate on day 0. The cells were treated on day 1 for 96 hours with 5 μl of each of the compounds at concentrations increasing from 0 to 25 μM final concentration. At the end of this period, quantification of cell proliferation is evaluated by a colorimetric test based on the cleavage of the tetrazolium salt WST1 by the mitochondrial dehydrogenases in viable cells leading to the formation of formazan (Boehringer Mannheim, Meylan, France). These tests are carried out in duplicate with 8 determinations per concentration tested. […]

In the case of `CC[C@H](CO)Nc1nc(NCc2ccccc2)c2ncn(C(C)C)c2n1` [Roscovitine], the “antiproliferative activity regarding DU-145 cells” value is reported as “no antiproliferative activity”.
